# Laboratory results: patent US11656384B2, “Composition, film, lens, solid state imaging element, and compounds” (FUJIFILM Corporation, priority 2017, dated 2023)
# Assay: Dissolution test: solubility of the compound in a solvent at 25° C.
# [1] = solvent PGMEA/PGME (90% by mass/10% by mass)
# [2] = solvent Diethylene glycol monobutyl ether acetate
# Protocol: By the following method, the solubility of the compound represented by General Formula (I) in a solvent was investigated.
# Then, solids were removed using a 0.5 μm TEFLON (registered trademark) filter. Thereafter, the obtained filtrate was caused to volatilize for 3 hours at 150° C. in a vacuum, and the content of residues was measured, thereby quantifying the content of solids dissolved in the solvent.
smiles,measurement,setting,value
c1ccc(Nc2nc(Nc3ccccc3)nc(Nc3ccccc3)n2)cc1 [Compound A-1],Solubility,solvent Toluene,< 0.5% by mass
N#Cc1ccc(Nc2nc(Nc3ccc(C#N)cc3)nc(Nc3ccc(C#N)cc3)n2)cc1 [Compound A-2],Solubility,solvent Cyclohexyl methyl ether,< 0.5% by mass
same,Solubility,solvent PGMEA,Less than 0.5% by % by mass
CC(=O)Nc1ccc(Nc2nc(Nc3ccc(NC(C)=O)cc3)nc(Nc3ccc(NC(C)=O)cc3)n2)cc1 [Compound A-3],Solubility,solvent Cyclohexanone,< 0.5% by mass
same,Solubility,solvent PGME,< 0.5% by mass
same,Solubility,solvent PGMEA,Less than 0.5% by % by mass
c1ccc2cc(Nc3nc(Nc4ccc5ccccc5c4)nc(Nc4ccc5ccccc5c4)n3)ccc2c1 [Compound A-4],Solubility,solvent Butyl acetate,< 0.5% by mass
same,Solubility,solvent PGME,< 0.5% by mass
same,Solubility,solvent PGMEA,Less than 0.5% by % by mass
Brc1ccc(Nc2nc(Nc3ccc(Br)cc3)nc(Nc3ccc(Br)cc3)n2)cc1 [Compound A-5],Solubility,solvent 3-methoxybutyl acetate,< 0.5% by mass
same,Solubility,solvent PGMEA,Less than 0.5% by % by mass
O=[N+]([O-])c1ccc(Nc2nc(Nc3ccc([N+](=O)[O-])cc3)nc(Nc3ccc([N+](=O)[O-])cc3)n2)cc1 [Compound A-6],Solubility,solvent Cyclohexyl acetate,< 0.5% by mass
same,Solubility,solvent PGMEA,Less than 0.5% by % by mass
c1ccc(-c2ccc(-c3ccc(Nc4nc(Nc5ccc(-c6ccc(-c7ccccc7)cc6)cc5)nc(Nc5ccc(-c6ccc(-c7ccccc7)cc6)cc5)n4)cc3)cc2)cc1 [Compound A-7],Solubility,solvent PGMEA,Less than 0.5% by % by mass
same,Solubility,solvent PGMEA/PGME (70% by mass/30% by mass),< 0.5% by mass
same,Solubility,[1],< 0.5% by mass
N#Cc1ccc(-c2ccc(Nc3nc(Nc4ccc(-c5ccc(C#N)cc5)cc4)nc(Nc4ccc(-c5ccc(C#N)cc5)cc4)n3)cc2)cc1 [Compound A-8],Solubility,solvent Cyclopentanone,< 0.5% by mass
same,Solubility,solvent PGMEA,Less than 0.5% by % by mass
CSc1ccc(Nc2nc(Nc3ccc(SC)cc3)nc(Nc3ccc(SC)cc3)n2)cc1 [Compound A-9],Solubility,solvent Cyclobutyl ether,< 0.5% by mass
same,Solubility,[2],< 0.5% by mass
same,Solubility,solvent PGMEA,Less than 0.5% by % by mass
CN(c1ccccc1)c1nc(Nc2ccccc2)nc(Nc2ccccc2)n1 [Compound A-10],Solubility,solvent Anisole,< 0.5% by mass
same,Solubility,solvent PGMEA,Less than 0.5% by % by mass
same,Solubility,solvent Propylene glycol diacetate,< 0.5% by mass
c1ccc(Nc2nc(Nc3ccccc3)nc(Oc3ccccc3)n2)cc1 [Compound A-11],Solubility,solvent Dipropylene glycol dimethyl ether,< 0.5% by mass
same,Solubility,solvent PGMEA,Less than 0.5% by % by mass
c1ccc(Nc2nc(Nc3ccccc3)nc(Sc3ccccc3)n2)cc1 [Compound A-12],Solubility,solvent 3-methoxybutyl acetate,< 0.5% by mass
same,Solubility,[2],< 0.5% by mass
same,Solubility,solvent PGMEA,Less than 0.5% by % by mass
O=C(Nc1ccccc1)c1cc(C(=O)Nc2ccccc2)cc(C(=O)Nc2ccccc2)c1 [Compound A-14],Solubility,solvent Ethyl lactate,< 0.5% by mass
same,Solubility,solvent PGMEA,Less than 0.5% by % by mass
O=S(=O)(Nc1ccccc1)c1cccc2c(S(=O)(=O)Nc3ccccc3)cccc12 [Compound A-15],Solubility,solvent Cyclohexyl acetate,< 0.5% by mass
same,Solubility,solvent PGMEA,Less than 0.5% by % by mass
same,Solubility,[1],< 0.5% by mass
O=S(=O)(Nc1ccccc1)c1cccc2c(S(=O)(=O)Nc3ccccc3)cccc12 [Compound A-16],Solubility,solvent 3-methoxybutyl acetate,< 0.5% by mass
same,Solubility,solvent PGMEA/PGME (80% by mass/20% by mass),< 0.5% by mass
O=S(=O)(Nc1ccccc1)c1cccc2c(S(=O)(=O)Nc3ccccc3)cccc12 [Compound A-17],Solubility,solvent Cyclopentanone/PGME (90% by mass/10% by mass),< 0.5% by mass
c1ccc(Nc2nc(Nc3ccccc3)nc(Nc3ccc(-c4ccc(-c5ccccc5)cc4)cc3)n2)cc1 [Compound A-19],Solubility,solvent PGMEA,Less than 0.5% by % by mass
c1ccc(-c2ccc(-c3ccc(Nc4nc(Nc5ccc(-c6ccc(-c7ccccc7)cc6)cc5)nc(Nc5nc6ccccc6s5)n4)cc3)cc2)cc1 [Compound A-20],Solubility,solvent PGMEA,Less than 0.5% by % by mass
c1ccc(-c2ccc(-c3ccc(-c4ccc(Nc5nc(Nc6ccc(-c7ccc(-c8ccc(-c9ccccc9)cc8)cc7)cc6)nc(Nc6ccc(-c7ccc(-c8ccc(-c9ccccc9)cc8)cc7)cc6)n5)cc4)cc3)cc2)cc1 [Compound A-21],Solubility,solvent PGMEA,Less than 0.5% by % by mass
Clc1ccc(-c2ccc(Nc3nc(Nc4ccc(-c5ccc(Cl)cc5)cc4)nc(Nc4ccc(-c5ccc(Cl)cc5)cc4)n3)cc2)cc1 [Compound A-22],Solubility,solvent PGMEA,Less than 0.5% by % by mass
CN(c1ccccc1)c1nc(Nc2ccc(-c3ccc(-c4ccccc4)cc3)cc2)nc(Nc2ccc(-c3ccc(-c4ccccc4)cc3)cc2)n1 [Compound A-23],Solubility,solvent PGMEA,Less than 0.5% by % by mass
N#Cc1ccc(-c2ccc(Nc3nc(Nc4ccc(-c5ccc(C#N)cc5)cc4)nc(Oc4ccccc4)n3)cc2)cc1 [Compound A-24],Solubility,solvent PGMEA,Less than 0.5% by % by mass
